{"source": "patent US11021518B2", "about": "“Theta defensin analogs” (The University of Southern California, priority 2019, dated 2021)", "key": {"[1]": {"molecular_target": "TACE (Homo sapiens, UniProt P78536)", "sequence (P78536 215-824)": "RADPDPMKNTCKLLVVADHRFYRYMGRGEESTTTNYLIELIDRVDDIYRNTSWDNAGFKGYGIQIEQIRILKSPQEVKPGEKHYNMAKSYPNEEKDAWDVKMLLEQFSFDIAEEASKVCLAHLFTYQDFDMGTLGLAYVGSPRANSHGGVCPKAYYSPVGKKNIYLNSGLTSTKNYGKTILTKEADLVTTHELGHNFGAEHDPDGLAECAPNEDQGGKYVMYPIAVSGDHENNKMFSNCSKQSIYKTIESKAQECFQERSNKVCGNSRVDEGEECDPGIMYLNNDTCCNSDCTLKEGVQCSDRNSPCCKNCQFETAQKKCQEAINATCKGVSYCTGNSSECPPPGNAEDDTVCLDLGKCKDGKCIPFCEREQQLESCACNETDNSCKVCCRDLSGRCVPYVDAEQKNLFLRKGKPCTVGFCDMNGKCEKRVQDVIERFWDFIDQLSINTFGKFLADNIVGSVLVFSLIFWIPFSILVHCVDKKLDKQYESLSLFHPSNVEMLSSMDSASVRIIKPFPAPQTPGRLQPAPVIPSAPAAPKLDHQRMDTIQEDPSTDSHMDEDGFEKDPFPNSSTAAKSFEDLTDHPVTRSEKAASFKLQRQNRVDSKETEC", "assay": "inhibition of TACE", "assay_type": "biochemical"}, "[2]": {"tested_on": "carbapenem resistant strain of Klebsiella pneumoniae (KPC+-Kp BAA-1705 (ATCC))", "assay": "murine carbapenem resistant Klebsiella pneumoniae sepsis model, survival", "assay_type": "in vivo, BALB/c mice", "conditions": "for survival (FIG. 3 left panel): 5 mg/kg i.p. 1 hour post infection, sham controls 25% survival; for Kp sepsis % survival at 5 mg/kg: BALB/c mice, i.p. infection, peptide 5 mg/kg i.p. 1 hour post infection; for survival (FIG. 3 right panel): 0.5 mg/kg i.p. 1 hour post infection; for therapeutic effect on survival (FIG. 4): 1 hour post infection", "description": "BALB/c mice were infected interperitoneally with 3-5×10^8 CFU of a carbapenem resistant strain of Klebsiella pneumoniae (KPC+-Kp BAA-1705 (ATCC)) and treated with peptide one hour post infection. […] P-values were determined by Fisher's exact test. The therapeutic peptides were provided intraperitoneally 1 hour after induction of sepsis.\nBALB/c mice were infected i.p. with KPC+-Kp BAA-1705 (ATCC) and treated with a single dose of MTD12813, at the levels indicated, 1 hour post infection. The significance (P-values determined by Fisher's exact test) of the therapeutic effect for each dose is shown. […] It should be appreciated that 0.5 mg/kg is the lowest dose tested, and that Inventors believe that MTD12813 is effective at still lower doses, for example down to 0.25 mg/kg, […], or 10 μg/kg."}, "[3]": {"tested_on": "TNF-α (TNF) release", "assay": "suppression of TNF-α (TNF) release", "assay_type": "cell-based"}}, "note": "Bridge positions count the residues as written; N and C are the ends. Peptide text beside a SMILES is read from it.", "data": [{"molecule": "CC(C)[C@@H]1NC(=O)CNC(=O)[C@H](CCCNC(=N)N)NC(=O)[C@H](CCCNC(=N)N)NC(=O)[C@@H]2CSSC[C@H](NC1=O)C(=O)N[C@@H](C)C(=O)N[C@H]1CSSC[C@H](NC(=O)[C@H](Cc3ccccc3)NC(=O)[C@H](CCCNC(=N)N)NC(=O)[C@H](CCCNC(=N)N)NC(=O)[C@H](CCCNC(=N)N)NC1=O)C(=O)N[C@@H](C)C(=O)N2", "note": "[MTD1289] (cyclo(ACRRGVCACRRRFC); disulfide 2-7, 9-14)", "values": [{"measurement": "IC50", "setting": "[1]", "result": 1.67, "unit": "µM"}]}, {"molecule": "RTD-1: naturally occurring rhesus monkey θ-defensin, cyclic octadecapeptide with 3 disulfide bonds (cyclo(GFCRCLCRRGVCRCICTR); disulfide (positions not given here); not fully specified (bridges); also: three disulfide bonds, pairing not given here; listed as Macaca mulatta) [reference compound]", "values": [{"measurement": "survival (FIG. 3 left panel)", "setting": "[2]", "result": 70, "unit": "%"}]}, {"molecule": "CC(C)[C@@H]1NC(=O)CNC(=O)[C@H](CCCNC(=N)N)NC(=O)[C@H](CCCNC(=N)N)NC(=O)[C@@H]2CSSC[C@H](NC1=O)C(=O)N[C@@H](C)C(=O)N[C@H]1CSSC[C@H](NC(=O)[C@H](Cc3ccccc3)NC(=O)[C@H](CCCNC(=N)N)NC(=O)[C@H](CCCNC(=N)N)NC(=O)[C@H](C)NC1=O)C(=O)N[C@@H](C)C(=O)N2", "note": "[MTD12815] (cyclo(ACARRFCACRRGVC); disulfide 2-7, 9-14)", "values": [{"measurement": "IC50", "setting": "[1]", "result": 1.18, "unit": "µM"}]}, {"molecule": "CC[C@H](C)[C@@H]1NC(=O)[C@@H]2CSSC[C@H](NC(=O)[C@H](CO)NC(=O)[C@@H]3CSSC[C@H](NC1=O)C(=O)N[C@@H](CCCNC(=N)N)C(=O)N[C@@H](CCCNC(=N)N)C(=O)NCC(=O)N[C@@H](C(C)C)C(=O)N3)C(=O)N[C@@H](CCCNC(=N)N)C(=O)N[C@@H](CCCNC(=N)N)C(=O)N[C@@H](CCCNC(=N)N)C(=O)N[C@@H](Cc1ccccc1)C(=O)N2", "note": "[MTD12811] (cyclo(CICRRGVCSCRRRF); disulfide 1-10, 3-8)", "values": [{"measurement": "TNF % suppression at 5 mg/kg", "setting": "[3]", "result": 37.5, "unit": "%"}, {"measurement": "Kp sepsis % survival at 5 mg/kg", "setting": "[2]", "result": 30, "unit": "%"}, {"measurement": "IC50", "setting": "[1]", "result": 1.89, "unit": "µM"}]}, {"molecule": "CC(C)C[C@@H]1NC(=O)[C@@H]2CSSC[C@H](NC(=O)[C@H](CO)NC(=O)[C@@H]3CSSC[C@H](NC1=O)C(=O)N[C@@H](CCCNC(=N)N)C(=O)N[C@@H](CCCNC(=N)N)C(=O)NCC(=O)N[C@@H](C(C)C)C(=O)N3)C(=O)N[C@@H](CCCNC(=N)N)C(=O)N[C@@H](CCCNC(=N)N)C(=O)N[C@@H](CCCNC(=N)N)C(=O)N[C@@H](Cc1ccccc1)C(=O)N2", "note": "[MTD12810] (cyclo(CLCRRGVCSCRRRF); disulfide 1-10, 3-8)", "values": [{"measurement": "TNF % suppression at 5 mg/kg", "setting": "[3]", "result": 2.0, "unit": "%"}, {"measurement": "Kp sepsis % survival at 5 mg/kg", "setting": "[2]", "result": 0, "unit": "%"}, {"measurement": "IC50", "setting": "[1]", "result": 1.54, "unit": "µM"}]}, {"molecule": "CC[C@H](C)[C@@H]1NC(=O)[C@@H]2CSSC[C@H](NC(=O)[C@H](CC(C)C)NC(=O)[C@@H]3CSSC[C@H](NC1=O)C(=O)N[C@@H](CCCNC(=N)N)C(=O)N[C@@H](CCCNC(=N)N)C(=O)N[C@@H](CCCNC(=N)N)C(=O)N[C@@H](Cc1ccccc1)C(=O)N3)C(=O)N[C@@H](CCCNC(=N)N)C(=O)N[C@@H](CCCNC(=N)N)C(=O)NCC(=O)N[C@@H](C(C)C)C(=O)N2", "note": "[MTD1280] (cyclo(CICRRRFCLCRRGV); disulfide 1-10, 3-8)", "values": [{"measurement": "TNF % suppression at 5 mg/kg", "setting": "[3]", "result": 98.7, "unit": "%"}, {"measurement": "survival (FIG. 3 right panel)", "setting": "[2]", "result": "essentially identical to that of the sham control"}, {"measurement": "Kp sepsis % survival at 5 mg/kg", "setting": "[2]", "result": "80-100%"}, {"measurement": "IC50", "setting": "[1]", "result": 1.28, "unit": "µM"}]}, {"molecule": "CC[C@H](C)[C@@H]1NC(=O)[C@@H]2CSSC[C@H](NC(=O)[C@H](CC(C)C)NC(=O)[C@@H]3CSSC[C@H](NC1=O)C(=O)N[C@@H](CCCNC(=N)N)C(=O)N[C@@H](CCCNC(=N)N)C(=O)N[C@@H](CCCNC(=N)N)C(=O)N[C@@H](Cc1ccccc1)C(=O)N3)C(=O)N[C@@H](CCCNC(=N)N)C(=O)N[C@@H](CCCNC(=N)N)C(=O)NCC(=O)N[C@@H](C)C(=O)N2", "note": "[MTD1286] (cyclo(ACICRRRFCLCRRG); disulfide 2-11, 4-9)", "values": [{"measurement": "IC50", "setting": "[1]", "result": 0.305, "unit": "µM"}]}, {"molecule": "CC[C@H](C)[C@@H]1NC(=O)[C@@H]2CSSC[C@H](NC(=O)[C@H]([C@@H](C)CC)NC(=O)[C@@H]3CSSC[C@H](NC1=O)C(=O)N[C@@H](CCCNC(=N)N)C(=O)N[C@@H](CCCNC(=N)N)C(=O)NCC(=O)N[C@@H](C(C)C)C(=O)N3)C(=O)N[C@@H](CCCNC(=N)N)C(=O)N[C@@H](CCCNC(=N)N)C(=O)NCC(=O)N[C@@H](C(C)C)C(=O)N2", "note": "[MTD1281] (cyclo(CICRRGVCICRRGV); disulfide 1-10, 3-8)", "values": [{"measurement": "TNF % suppression at 5 mg/kg", "setting": "[3]", "result": 83.0, "unit": "%"}, {"measurement": "Kp sepsis % survival at 5 mg/kg", "setting": "[2]", "result": 40, "unit": "%"}, {"measurement": "IC50", "setting": "[1]", "result": 0.347, "unit": "µM"}]}, {"molecule": "CC[C@H](C)[C@@H]1NC(=O)[C@@H]2CSSC[C@H](NC(=O)[C@H](CO)NC(=O)[C@@H]3CSSC[C@H](NC1=O)C(=O)N[C@@H](CCCNC(=N)N)C(=O)N[C@@H](CCCNC(=N)N)C(=O)N[C@@H](CCCNC(=N)N)C(=O)N[C@@H](Cc1ccccc1)C(=O)N3)C(=O)N[C@@H](CCCNC(=N)N)C(=O)N[C@@H](CCCNC(=N)N)C(=O)NCC(=O)N[C@@H](C(C)C)C(=O)N2", "note": "[MTD12812] (cyclo(CICRRRFCSCRRGV); disulfide 1-10, 3-8)", "values": [{"measurement": "TNF % suppression at 5 mg/kg", "setting": "[3]", "result": 14.9, "unit": "%"}, {"measurement": "Kp sepsis % survival at 5 mg/kg", "setting": "[2]", "result": 20, "unit": "%"}, {"measurement": "IC50", "setting": "[1]", "result": 1.1, "unit": "µM"}]}, {"molecule": "CC(C)C[C@@H]1NC(=O)[C@@H]2CSSC[C@H](NC(=O)[C@H](CC(C)C)NC(=O)[C@@H]3CSSC[C@H](NC1=O)C(=O)N[C@@H](CCCNC(=N)N)C(=O)N[C@@H](CCCNC(=N)N)C(=O)NCC(=O)N[C@@H](C(C)C)C(=O)N3)C(=O)N[C@@H](CCCNC(=N)N)C(=O)N[C@@H](CCCNC(=N)N)C(=O)NCC(=O)N[C@@H](C(C)C)C(=O)N2", "note": "[MTD1284] (cyclo(CLCRRGVCLCRRGV); disulfide 1-10, 3-8)", "values": [{"measurement": "TNF % suppression at 5 mg/kg", "setting": "[3]", "result": 78.8, "unit": "%"}, {"measurement": "Kp sepsis % survival at 5 mg/kg", "setting": "[2]", "result": 53.3, "unit": "%"}, {"measurement": "IC50", "setting": "[1]", "result": 0.732, "unit": "µM"}]}, {"molecule": "CC[C@H](C)[C@@H]1NC(=O)[C@@H]2CSSC[C@H](NC(=O)[C@H]([C@@H](C)CC)NC(=O)[C@@H]3CSSC[C@H](NC1=O)C(=O)NCC(=O)N[C@@H](CCCNC(=N)N)C(=O)NCC(=O)N[C@@H](C(C)C)C(=O)N3)C(=O)N[C@@H](CCCNC(=N)N)C(=O)N[C@@H](CCCNC(=N)N)C(=O)N[C@@H](CCCNC(=N)N)C(=O)N[C@@H](C(C)C)C(=O)N2", "note": "[MTD12813] (cyclo(CGRGVCICRRRVCI); disulfide 1-6, 8-13)", "values": [{"measurement": "TNF % suppression at 5 mg/kg", "setting": "[3]", "result": 95.6, "unit": "%"}, {"measurement": "survival (FIG. 3 right panel)", "setting": "[2]", "result": "~90", "unit": "%"}, {"measurement": "survival (FIG. 3 left panel)", "setting": "[2]", "result": "complete protection"}, {"measurement": "Kp sepsis % survival at 5 mg/kg", "setting": "[2]", "result": 100, "unit": "%"}, {"measurement": "therapeutic effect on survival (FIG. 4)", "setting": "[2]; single dose 0.5 mg/kg, lowest dose tested", "result": "highly effective"}, {"measurement": "therapeutic effect on survival (FIG. 4)", "setting": "[2]; single dose 1.25 mg/kg", "result": "as effective as 5 mg/kg"}, {"measurement": "IC50", "setting": "[1]", "result": 0.546, "unit": "µM"}]}]}
